Assay results: article PMC5883364 (Malaria Journal, 2018)

What was measured:
[1] = test system: HepG2-A16 (human hepatoma) cells
Method: (§1) Cytotoxicity was assessed on the mammalian cell lines HepG2-A16 (human hepatoma) and V79 (Chinese hamster lung), using a MTT based assay, as previously described. […] V79 and HepG2 cell lines were incubated for 24 and 48 h, respectively (media changed at 24 h intervals). Absorbance was read at 570 nm on a multi-mode microplate reader (Triad, Dynex Technologies), to produce a log dose-dependence curve. The LD50 value for each compound was estimated by non-linear interpolation of the dose-dependence curve (GraphPad Software).

[2] = test system: V79 (Chinese hamster lung) cells
Method: as §1

[3] = test system: P. falciparum 3D7 (chloroquine and mefloquine sensitive); design: method as in Lobo et al, 2016; conditions: strain 3D7; ref Lobo et al, 2016; read-out: P. falciparum IC50 ± SD, 3D7; cited from earlier work
[4] = test system: P. falciparum Dd2 (chloroquine-resistant, mefloquine-resistant); design: method as in Lobo et al, 2016; conditions: ref Lobo et al, 2016, cited from earlier work
[5] = test system: P. falciparum IPC4912 (artemisinin-resistant, K13 I543T); assay: SYBR Green I assay, IC50, strain IPC4912; type: cell-based, Plasmodium falciparum; conditions: Plasmodium falciparum, read-out: P. falciparum IC50 ± SD, IPC4912
Method: Staging and parasitaemia were determined by light microscopy of Giemsa-stained thin blood smears. Anti-malarial activity was determined using the SYBR Green I assay, as previously described. Briefly, early ring stage parasites (> 80% of rings) were challenged with a 1:3 serial dilution of each compound, in concentrations ranging from 10,000–0.169 nM. Fluorescence intensity was measured with a multi-mode microplate reader (Triad, Dynex Technologies), with excitation and emission wavelengths of 485 and 535 nm, respectively, and analysed by nonlinear regression using GraphPad Prism to determine IC50 values.

[6] = test system: P. falciparum IPC5202 (artemisinin-resistant, K13 R539T); assay: SYBR Green I assay, IC50, strain IPC5202; type: cell-based, Plasmodium falciparum; conditions: Plasmodium falciparum, read-out: P. falciparum IC50 ± SD, IPC5202, strain IPC5202
Method: Staging and parasitaemia were determined by light microscopy of Giemsa-stained thin blood smears. Anti-malarial activity was determined using the SYBR Green I assay, as previously described.

[7] = test system: P. falciparum IPC5202 ring-stage parasites; assay: Ring-stage survival assay (RSA), IPC5202; type: cell-based, Plasmodium falciparum; conditions: Plasmodium falciparum, 6 h; read-out: Ring-stage survival rate (RSA), percentage of viable parasites, IPC5202
Method: Ring-stage survival assays (RSA) were carried out as described in [21], with modifications. Parasite cultures were synchronized once, with 5% sorbitol, and in the next reinvasion cycle, twice, with a 6 h interval. […] Then, plates were centrifuged and supernatant replaced by drug-free culture media. After additional incubation during 66 h for ring-stage, and 42 h for mature-stage, susceptibility was assessed microscopically on Giemsa-stained thin blood smears by estimating the percentage of viable parasites that developed into a second generation of rings or trophozoites.

[8] = test system: P. falciparum 3D7 mature-stage parasites; conditions: typical value, strain not stated; cited from earlier work

With `O=C1CCC2(CC1)OOC1(O2)C2CC3CC(C2)CC1C3` (stereo not shown) [LC50] the “Selectivity index LD50 (HepG2)/IC50 (3D7)” value ([1]; HepG2 vs 3D7) was 71428.6, the “Selectivity index LD50 (HepG2)/IC50 (Dd2)” value ([1]; HepG2 vs Dd2) was 42372.8 and the “Selectivity index LD50 (V79)/IC50 (3D7)” value ([2]; V79 vs 3D7) was 71428.6. The “Selectivity index LD50 (V79)/IC50 (Dd2)” value ([2]; V79 vs Dd2) was 42372.8, the IC50 [3] was 0.014 ± 0.0067 µM and the “Resistance Index RIa = IC50 (Dd2)/IC50 (3D7)” value ([4]; Dd2 vs 3D7) was 1.7. The IC50 ([4]; strain Dd2, read-out: P. falciparum IC50 ± SD, Dd2) was 0.0236 ± 0.0084 µM.
With `C[C@H]1[C@@H](O)O[C@@H]2O[C@@]3(C)CC[C@H]4[C@H](C)CC[C@@H]1[C@@]24OO3` [DHA, dihydroartemisinin, reference compound] the “LD50 HepG2” value ([1]; human, 48 h) was 1.0 mM, the LD50 V79 ([2]; Chinese hamster, 24 h) was > 1 mM and the IC50 [5] was 0.0037 ± 0.002 µM. The IC50 [6] was 0.0062 ± 0.0016 µM, the viability at 0.7 µM [7] was ≤ 25% and the “viable mature-stage parasites allowed” value [8] was ~1%.
